Common to all, as to type: cell-based
The subject of experiment [1] is c-myc. As to the kind of experiment: Inhibition of c-myc expression (mRNA, real-time PCR) in MV4-11 cells. To be noted: Human AML MV4-11 cells, 3 h, cMYC mRNA. The method in brief: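 One-step TaqMan qPCR of cMYC, normalized to an internal control with Cyclophilin probes run, gave fold expression versus DMSO (0.1%) control. Samples: triplicate MV4-11 wells exposed 3 h at 37° C to rising compound concentrations in IMDM with 10% FBS.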

Experiment [2] has as its system hIL-6 mRNA. Briefly: Inhibition of hIL-6 mRNA transcription in LPS-stimulated U937 cells. To be noted: Homo sapiens, U-937; PMA-differentiated U937 cells, 1 h pretreatment, 1 ug/mL LPS stimulation, 3 h; read-out: IL-6 activity (Inhibition of hIL-6 mRNA Transcription). An outline of the steps:
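U937 cells differentiated 3 days with 60 ng/mL PMA, pretreated 1 h with compound (0.1% DMSO), then stimulated with 1 ug/mL E. coli LPS for 3 h at 37 °C. hIL-6 mRNA measured by one-step TaqMan RT-qPCR, normalized to cyclophilin. Fold expression relative to control; triplicate wells.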

Experiment [3] deals with hIL-17 mRNA. As to the kind of experiment: Inhibition of hIL-17 mRNA transcription in OKT3-stimulated peripheral blood mononuclear cells. To be noted: PBMC, human peripheral blood mononuclear cells, OKT3 antibody, 6 h, read-out: IL-17 activity. The procedure:
In this example, hIL-17 mRNA in human peripheral blood mononuclear cells was quantitated to measure the transcriptional inhibition of hIL-17 when treated with a compound of the invention.
Human peripheral blood mononuclear cells were plated (2.0×10^5 cells per well) in a 96-well plate in 45 μL OpTimizer T Cell expansion media containing 20 ng/ml IL-2 and penicillin/streptomycin. The cells were treated with the test compound (45 μL at 2× concentration), and then the cells were incubated at 37° C. for 1 h before addition of 10× stock OKT3 antibody at 10 μg/ml in media. Cells were incubated at 37° C. for 6 h before the cells were harvested. At time of harvest, cells were centrifuged (800 rpm, 5 min). Spent media was removed and cell lysis solution (70 μL) was added to the cells in each well and incubated for 5-10 min at room temperature, to allow for complete cell lysis and detachment. mRNA was then prepared using the “mRNA Catcher PLUS plate” (Invitrogen), according to the protocol supplied. After the last wash, as much wash buffer as possible was aspirated without allowing the wells to dry. Elution buffer (E3, 70 μL) was then added to each well. mRNA was then eluted by incubating the mRNA Catcher PLUS plate with Elution Buffer for 5 min at 68° C. and then immediately placing the plate on ice.
The eluted mRNA isolated was then used in a one-step quantitative RT-PCR reaction, using components of the Ultra Sense Kit together with Applied Biosystems primer-probe mixes. Real-time PCR data was analyzed, normalizing the Ct values for hIL-17 to an internal control, prior to determining the fold induction of each unknown sample, relative to the control.

Some results are limits rather than exact numbers.

In the case of `Cc1noc(C)c1-c1cc(N)c2ncn(Cc3ccccc3)c2c1` [Example Compound 7, 1-Benzyl-6-(3,5-dimethylisoxazol-4-yl)-1H-benzo[d]imidazol-4-amine], the IC50 is 300 to 3000 nM in experiment [1], at most 300 nM in experiment [2] and at most 300 nM in experiment [3].

(Values after US10363257B2 (ZENITH EPIGENETICS LTD., priority 2013, dated 2019).)
